Data on one compound can be found in US20120082736A1, “Small-molecule TNF modulator to reduce the side effects of chemotherapy and radiotherapy” (GeneBlue Corporation, priority 2010, published 2012).

SMILES strings stand for the structures. Entries after “also recorded” stand apart in the source; their conditions may differ.

In series [1] the test system is BDF1 mice. In words: Add-on study: does UTL-5g increase platelet count by itself (Example 3). It is filed as in vivo. The protocol: Gp 1: medium (saline). Gp 2: saline followed by cisplatin (2.5 mg/kg) 30 min later. Gp 3: UTL-5g (15 mg/kg) followed by cisplatin 30 min later. Gp 4: UTL-5g (30 mg/kg) followed by cisplatin (2.5 mg/kg) 30 min later. Gp 5: UTL-5g (60 mg/kg) followed by cisplatin (2.5 mg/kg) 30 min later. Gp 6: amifostine (200 mg/kg) followed by cisplatin (2.5 mg/kg) 30 min later. Gp 7: saline followed by cisplatin (5 mg/kg) 30 min later. Gp 8: UTL-5g (60 mg/kg) followed by medium (saline) 30 min later. Gp 1-Gp 6 were daily ×5, but Gp 7 was by single dose on day 0 only. StDev is shown for each Gp (n=5 for each group except n=4 for Gp 7). * P<0.05, ** p<0.005 vs. medium control by Student's t-t (two-tailed).
To further investigate whether UTL-5g by itself would increase platelet count, the following small add-on study was conducted: • Gp 1: medium (saline) followed by medium (saline) 30 min later (same as Gp 1 before) • Gp 2: medium (saline) followed by cisplatin (2.5 mg/kg) 30 min later (same as Gp 2 before) • Gp 5: UTL-5g (60 mg/kg) followed by cisplatin (2.5 mg/kg) 30 min later (Same as Gp 5 before) • Gp 8: UTL-5g alone (60 mg/kg) followed by medium (saline) 30 min later (New Gp)

Series [2] concerns TNF-α. The series can be described thus: Liver TNF-α levels after liver irradiation (ELISA). It is filed as in vivo, mice. The method, then:
Mice were treated individually with 0.3 mL each of UTL-5g preparations i.p. 1 hr prior to liver irradiation at 15 Gy. Liver TNF-α levels were analyzed by standard ELISA methodology.
Based on the preliminary studies, UTL-5g was selected for dose-dependent radioprotective studies. In this study, animals were treated with increasing doses of UTL-5g (from 0 to 60 mg/kg) one hr prior to liver irradiation (15 Gy). Two hr after irradiation, animals were sacrificed and serum AST/ALT enzyme activities and liver TNF-α levels were determined. […] For animals pre-treated with UTL-5g at 30 mg/kg, AST/ALT activity levels were lowered from 135/29 to 89/22 Unit/L, and those pre-treated with UTL-5g at 60 mg/kg, AST/ALT levels were reduced from 135/29 to 74/19 Unit/L, respectively.
On the technique in general: ELISA stands for enzyme-linked immunosorbent assay.

Series [3] concerns mice. Conditions: cited from earlier work.

In the case of `Cc1cc(C(=O)Nc2ccc(Cl)cc2Cl)no1` [UTL-5g], in series [1] (UTL-5g 60 mg/kg followed 30 min later by cisplatin 2.5 mg/kg or by saline), the platelet count result is “significantly increased platelet count”. Further, the “WBC, protective effect” value in series [1] (UTL-5g 60 mg/kg followed by cisplatin 2.5 mg/kg or saline) was “no significant protective effect”. Besides, in series [1] (UTL-5g alone 60 mg/kg followed by saline, mice not treated by cisplatin), the “platelet production, UTL-5g by itself” value is reported as “stimulated the production of platelets; also recorded: increased platelet counts”. For the same compound, the “liver TNF-α levels, reduction” value in series [2] (UTL-5g 30 mg/kg i.p. 1 hr prior to liver irradiation 15 Gy) is reported as 20%; in series [2] (UTL-5g 60 mg/kg i.p. 1 hr prior to liver irradiation 15 Gy) it was 29%. In addition, in series [3], the “LD50 (acute toxicity)” value is recorded as greater than 200 mg/kg.
